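Each compound was tested at five concentrations against cells in 96-well plates for 48 hours. The concentration for full growth arrest is given as TGI.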
What was measured:
Experiment in all cases: growth of human tumour cells (NCI), 48 h
MDA-MB-435 = tested on: MDA-MB-435
DMS 114 small cell lung = tested on: DMS 114 small cell lung
DLD-1 colon = tested on: DLD-1 colon
OVCAR-4 ovarian = tested on: OVCAR-4 ovarian
MCF7 breast = tested on: MCF7 breast
HOP-18 NSCLC = tested on: HOP-18 NSCLC
SK-MEL-2 melanoma = tested on: SK-MEL-2 melanoma
NCI/ADR-RES ovarian = tested on: NCI/ADR-RES ovarian
MDA-N = tested on: MDA-N
SF-539 CNS = tested on: SF-539 CNS
KM20L2 colon = tested on: KM20L2 colon
UACC-257 melanoma = tested on: UACC-257 melanoma
UO-31 renal = tested on: UO-31 renal
DMS 273 small cell lung = tested on: DMS 273 small cell lung
PC-3 prostate = tested on: PC-3 prostate
LXFL 529 NSCLC = tested on: LXFL 529 NSCLC
SK-OV-3 ovarian = tested on: SK-OV-3 ovarian

Cc1cc2c(s1)C(=O)c1sccc1C2=O
TGI (MDA-MB-435): 0.318 µM | TGI (DMS 114 small cell lung): 0.6 µM | TGI (DLD-1 colon): 3.36 µM | TGI (OVCAR-4 ovarian): 1.45 µM | TGI (MCF7 breast): 2.78 µM | TGI (HOP-18 NSCLC): 2.81 µM | TGI (SK-MEL-2 melanoma): 1.33 µM | TGI (NCI/ADR-RES ovarian): 1.64 µM | TGI (MDA-N): 0.308 µM | TGI (SF-539 CNS): 0.622 µM | TGI (KM20L2 colon): 4.75 µM | TGI (UACC-257 melanoma): 0.385 µM | TGI (UO-31 renal): 2.29 µM | TGI (DMS 273 small cell lung): 2.62 µM | TGI (PC-3 prostate): 4.93 µM | TGI (LXFL 529 NSCLC): 2.5 µM | TGI (SK-OV-3 ovarian): 4.47 µM

From PubChem BioAssay (NCI)
